Measured values: patent US20250163104A1, “MACROCYCLIC IMMUNOMODULATORS” (priority 2021, published 2025)
pIC50: −log10 of the molar value. Where a SMILES comes first, the peptide text is derived from it. Bridges are numbered along the chain shown (N, C = ends). [ ]: non-standard residue; d: D form. The star is where a group is joined. Bip = N[C@@H](Cc1ccc(-c2ccccc2)cc1)C(=O)O; Phe(3-Me) = Cc1cccc(C[C@H](N)C(=O)O)c1; Aha = [N-]=[N+]=NCC[C@H](N)C(=O)O; 4Pal = N[C@@H](Cc1ccncc1)C(=O)O; Cha = N[C@@H](CC1CCCCC1)C(=O)O; Cit = NC(=O)NCCC[C@H](N)C(=O)O; Chg = N[C@H](C(=O)O)C1CCCCC1; Carboxymethyl = O=C(O)C*; Orn = NCCC[C@H](N)C(=O)O; Dab = NCC[C@H](N)C(=O)O; Dap = NC[C@H](N)C(=O)O; Propargyl = C#CC*

These compounds were tested against T1, human PD-1 / PD-L1-Ig binding on Jurkat cell line over-expressing human PD-1 (Jurkat-PD-1) (Homo sapiens, UniProt Q15116) (assay: Jurkat-PD-1 Cell Binding High-Content Screening Assay (CBA)). Details: Jurkat HPD1_PDL1 IC50, Jurkat-PD-1 cells, PE-labeled PD-L1-Ig 20 nM final.
T1 construct: expressed in transfected cells; host or cells: Jurkat
T1 sequence (Q15116 25-288): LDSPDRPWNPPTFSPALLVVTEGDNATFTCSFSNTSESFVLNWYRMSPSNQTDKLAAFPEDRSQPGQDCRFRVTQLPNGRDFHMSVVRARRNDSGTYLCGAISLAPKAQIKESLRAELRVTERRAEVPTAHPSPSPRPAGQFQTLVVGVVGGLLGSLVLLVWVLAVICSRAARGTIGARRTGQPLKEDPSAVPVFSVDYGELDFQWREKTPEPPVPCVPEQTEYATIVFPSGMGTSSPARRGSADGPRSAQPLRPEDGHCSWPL
Format: cell-based
Method in brief: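 PE-PD-L1-Ig 20 nM final; cells in DMEM/10% FCS; cpd pre-incubation 2 h, 37° C; ligand 1 h; PFA fix + Hoechst 33342; high-content imaging read-out.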

SMILES | pIC50
Cc1cccc(C[C@@H]2NC(=O)[C@H](CC(=O)O)NC(=O)[C@H](Cc3ccncc3)NC(=O)[C@H](Cc3ccc(OCC(=O)O)cc3)NC(=O)CSC[C@@H](C(=O)NCC(N)=O)NC(=O)[C@H](CO)NC(=O)[C@H](C(C)C)NC(=O)[C@H](CC3CCCCC3)NC(=O)[C@H](Cc3c[nH]cn3)NC(=O)[C@@H](CC(C)C)NC(=O)[C@H](CCCN)NC(=O)[C@H](C(C)C)NC(=O)[C@H](Cc3ccc(-c4ccccc4)cc3)NC(=O)[C@H](CC(C)C)NC2=O)c1 [Compound 1585] ({CH2CO}-Y(Carboxymethyl)[4Pal]D[Phe(3-Me)]L[Bip]V[Orn][dL]H[Cha]VSCG-NH2; thioether N-14) | 7.30

Same assay, conditions: Jurkat-PD-1 cells, PE-labeled PD-L1-Ig 20 nM final; read-out: Jurkat HPD1_PDL1 IC50

pIC50 | SMILES
7.23 | C#CCOc1ccc(C[C@@H]2NC(=O)[C@H](CN)NC(=O)CSC[C@@H](C(=O)N[C@@H](CCN=[N+]=[N-])C(N)=O)NC(=O)[C@H]([C@@H](C)O)NC(=O)[C@H](C(C)C)NC(=O)[C@H](CC3CCCCC3)NC(=O)[C@H](CCN)NC(=O)[C@@H](CC(C)C)NC(=O)[C@H](CCCN)NC(=O)[C@H](CCC(=O)O)NC(=O)[C@H](Cc3ccc(-c4ccccc4)cc3)NC(=O)[C@H](C(C)C)NC(=O)[C@H](Cc3c[nH]c4ccccc34)NC(=O)[C@H](CC(=O)O)NC2=O)cc1 [Compound 1536] ({CH2CO}-[Dap]Y(Propargyl)DWV[Bip]E[Orn][dL][Dab][Cha]VTC[Aha]-NH2; thioether N-14)
8.32 | CC(C)C[C@H]1NC(=O)[C@H](CCCN)NC(=O)[C@H](CCCNC(N)=O)NC(=O)[C@H](Cc2ccc(-c3ccccc3)cc2)NC(=O)[C@H](C2CCCCC2)NC(=O)[C@H](Cc2c[nH]c3ccccc23)NC(=O)[C@H](CC(=O)O)NC(=O)[C@H](Cc2ccc(OCC(=O)O)cc2)NC(=O)[C@H](CN)NC(=O)CSC[C@@H](C(=O)N[C@@H](C)C(N)=O)NC(=O)[C@H]([C@@H](C)O)NC(=O)[C@H](C(C)C)NC(=O)[C@H](CC2CCCCC2)NC(=O)[C@H](CCN)NC1=O [Compound 1357] ({CH2CO}-[Dap]Y(Carboxymethyl)DW[Chg][Bip][Cit][Orn][dL][Dab][Cha]VTCA-NH2; thioether N-14)
8.34 | Cc1cccc(C[C@@H]2NC(=O)[C@H](CC(=O)O)NC(=O)[C@H](Cc3ccc(OCC(=O)O)cc3)NC(=O)[C@H](Cc3ccc(OCC(=O)O)cc3)NC(=O)CSC[C@@H](C(=O)NCC(N)=O)NC(=O)[C@H](CO)NC(=O)[C@H](C(C)C)NC(=O)[C@H](CC(C)C)NC(=O)[C@H](CCN)NC(=O)[C@@H](CC(C)C)NC(=O)[C@H](CCCN)NC(=O)[C@H](C(C)C)NC(=O)[C@H](Cc3ccc(-c4ccccc4)cc3)NC(=O)[C@H](CC(C)C)NC2=O)c1 [Compound 1262] ({CH2CO}-Y(Carboxymethyl)Y(Carboxymethyl)D[Phe(3-Me)]L[Bip]V[Orn][dL][Dab]LVSCG-NH2; thioether N-14)
7.80 | CC(C)C[C@@H]1NC(=O)[C@H](Cc2c[nH]c3ccccc23)NC(=O)[C@H](CC(=O)O)NC(=O)[C@H](Cc2ccc(OCC(=O)O)cc2)NC(=O)[C@H](CN)NC(=O)CSC[C@@H](C(=O)N[C@@H](C)C(N)=O)NC(=O)[C@H]([C@@H](C)O)NC(=O)[C@H](C(C)C)NC(=O)[C@H](CC(C)C)NC(=O)[C@H](CCN)NC(=O)[C@@H](CC(C)C)NC(=O)[C@H](CCCN)NC(=O)[C@H](C(C)C)NC(=O)[C@H](Cc2ccc(-c3ccccc3)cc2)NC1=O [Compound 1313] ({CH2CO}-[Dap]Y(Carboxymethyl)DWL[Bip]V[Orn][dL][Dab]LVTCA-NH2; thioether N-14)
7.45 | CC(C)C[C@@H]1NC(=O)[C@H](CCN)NC(=O)[C@@H](CC(C)C)NC(=O)[C@H](CCCCN)NC(=O)[C@H](CCCNC(N)=O)NC(=O)[C@H](Cc2ccc(-c3ccccc3)cc2)NC(=O)[C@H](C(C)C)NC(=O)[C@H](Cc2c[nH]c3ccccc23)NC(=O)[C@H](CC(=O)O)NC(=O)[C@H](Cc2ccc(O)cc2)NC(=O)[C@H](CC(N)=O)NC(=O)CSC[C@@H](C(=O)N[C@@H](C)C(N)=O)NC(=O)[C@H](CO)NC(=O)[C@H](C(C)C)NC1=O [Compound 1110] ({CH2CO}-NYDWV[Bip][Cit]K[dL][Dab]LVSCA-NH2; thioether N-14)
